# Results as given in patent publication EP4667463A1, “DOMIDE MOLECULAR GLUE DERIVATIVE AND USE THEREOF” (CSPC Megalith Biopharmaceutical Co., Ltd., priority 2023, dated 2024).
# Columns and labels:
# NCI-H929 = assay: In vitro anti-tumor activity of molecular glue compounds, CellTiter-Lumi cell viability assay; type: cell-based; details: Homo sapiens; NCI-H929 cells, 96 h incubation; read-out: Cell inhibitory activity (IC50 values) NCI-H929
# Procedure: (§1) Different tumor cells were all commercially available and used for evaluating the anti-tumor inhibitory activity of the compounds of the present disclosure. Various tumor cells were cultured until the cell confluency reached 80%-90%, with cell viability above 90% as determined by trypan blue exclusion. Then, the cells were plated. Specifically, after cell density optimization, 100 µL of each of the cell suspensions of HL-60 and SK-BR-3 cells (cell density: 3000 cells/well), Romas cells (cell density: 6000 cells/well), NCI-H929 cells (cell density: 4000 cells/well), and NCI-H82 cells (cell density: 5000 cells/well) was plated in a BeyoGold™ ultra-low attachment black clear-bottom 96-well plate (Cat. No.: FULA965-24pcs), and the plate was incubated overnight. The next day, after the adherent cells were adhered to the wall and suspension cells requiring aggregation were aggregated, 50 µL of culture medium was aspirated from each well of the 96-well plate. Then, the compounds diluted with the corresponding culture media were added. Specifically, the compounds were serially diluted at a 5-fold gradient starting from the highest concentration of 1 µM, with a final DMSO concentration of 1%o, and the test compounds were then added to the cell culture plate. The plate was incubated in an incubator at 37 °C with 5% carbon dioxide for 96 h. Before measurement, the CellTiter-Lumi™ luminescent cell viability assay reagent was equilibrated to room temperature in the dark. Then, 50 µL of the CellTiter-Lumi™ (Cat. No.: C0065XL) cell viability assay reagent was added to each well of the 96-well plate. The plate was shaken in the dark on a shaker at 300 rpm for 10 min to ensure complete cell lysis. After the reaction was completed, the luminescence was measured on a multi-mode microplate reader. The cell inhibition rate was determined according to the luminescence. Then, a cell viability curve was generated by Graphpad Prism 8.0, and the IC50 values were calculated. The compounds of the present disclosure were tested for activity by the method described above. Table 1. Cell inhibitory activity (IC50 values)
# HL-60 = assay: as above; type: cell-based; details: Homo sapiens; HL-60 cells, 96 h incubation; read-out: Cell inhibitory activity (IC50 values) HL-60
# Procedure: as §1
# NCI-H82 = assay: as above; type: cell-based; details: Homo sapiens; NCI-H82 cells, 96 h incubation; read-out: Cell inhibitory activity (IC50 values) NCI-H82
# Procedure: as §1
# SK-BR-3 = assay: as above; type: cell-based; details: Homo sapiens; SK-BR-3 cells, 96 h incubation; read-out: Cell inhibitory activity (IC50 values) SK-BR-3
# Procedure: as §1
# Romas = assay: as above; type: cell-based; details: Romas cells, 96 h incubation; read-out: Cell inhibitory activity (IC50 values) Romas
# Procedure: as §1
# [1] = Metabolic stability in liver microsomes; details: Mouse liver microsomes, after 60 min of incubation
# Procedure: (§2) The final concentration of the substrate in the incubation system was 1 µM, and the incubation time was 60 min. Sampling was performed at 0 min, 5 min, 15 min, 30 min, and 60 min. The reaction was stopped with glacial acetonitrile containing an internal standard (testosterone-d3 at a concentration of 10 ng/mL). Verapamil was used as a positive control. […] The natural logarithm of the remaining percentage was subjected to linear fitting with time to determine the elimination rate constant (k).
# in vitro [2] = details: monkey, microsomes
# Procedure: as §2
# in vitro [3] = details: human, microsomes
# Procedure: as §2
# in vitro [4] = details: rat, microsomes
# Procedure: as §2
# [5] = Metabolic stability in liver microsomes; details: Monkey liver microsomes, after 60 min of incubation
# Procedure: as §2
# [6] = Metabolic stability in liver microsomes; details: Human liver microsomes, after 60 min of incubation
# Procedure: as §2
# [7] = Metabolic stability in liver microsomes; details: Dog liver microsomes, after 60 min of incubation
# Procedure: as §2
# [8] = Metabolic stability in liver microsomes; details: Rat liver microsomes, after 60 min of incubation
# Procedure: as §2
Compound,IC50 (NCI-H929),IC50 (HL-60),IC50 (NCI-H82),IC50 (SK-BR-3),IC50 (Romas),further results
O=C1CCC(N2Cc3cc(CNC(=O)Nc4ccc(CCCOC5CNC5)c(Cl)c4)ccc3C2=O)C(=O)N1 (stereo not shown) [Compound B63],< 10 nM,< 10 nM,10 to 50 nM,< 10 nM,10 to 50 nM,"Parent drug remaining % [1]: 102%; CLint scaled at 1 µM (in vitro [2]): 0.257 mL/min/kg; CLint scaled at 1 h, 1 µM (in vitro [2]): 0.255 mL/min/kg; half-life at 1 µM (in vitro [2]): 132 h; CLint scaled at 1 µM (in vitro [3]): 0.19 mL/min/kg; CLint scaled at 1 h, 1 µM (in vitro [3]): 0.189 mL/min/kg; half-life at 1 µM (in vitro [3]): 152 h; CLint scaled at 1 µM (in vitro [4]): 1.39 mL/min/kg; CLint scaled at 1 h, 1 µM (in vitro [4]): 1.35 mL/min/kg; half-life at 1 µM (in vitro [4]): 29.8 h; Parent drug remaining % [5]: 101%; Parent drug remaining % [6]: 98.8%; Parent drug remaining % [7]: 103%; Parent drug remaining % [8]: 94.9%"
O=C1CCC(N2Cc3cc(CNC(=O)Nc4ccc(COC5CCCNC5)c(Cl)c4)ccc3C2=O)C(=O)N1 (stereo not shown) [Compound B7],10 to 50 nM,10 to 50 nM,10 to 50 nM,10 to 50 nM,10 to 50 nM,–
O=C1CCC(N2Cc3cc(CNC(=O)Nc4ccc(CCOCCNC5CCOCC5)c(Cl)c4)ccc3C2=O)C(=O)N1 (stereo not shown) [Compound B48],10 to 50 nM,< 10 nM,> 100 nM,50 to 100 nM,50 to 100 nM,–
O=C1CCC(N2Cc3cc(CNC(=O)Nc4ccc(CCOCC5CCCNC5)c(Cl)c4)ccc3C2=O)C(=O)N1 (stereo not shown) [Compound B14],< 10 nM,< 10 nM,10 to 50 nM,10 to 50 nM,< 10 nM,–
CNC1CCCC(OCCc2ccc(NC(=O)NCc3ccc4c(c3)CN(C3CCC(=O)NC3=O)C4=O)cc2Cl)C1 (stereo not shown) [Compound B43],< 10 nM,< 10 nM,10 to 50 nM,< 10 nM,< 10 nM,–
O=C1CCC(N2Cc3cc(CNC(=O)Nc4ccc(CCCOCC5CCCNC5)c(Cl)c4)ccc3C2=O)C(=O)N1 (stereo not shown) [Compound B20],< 10 nM,< 10 nM,10 to 50 nM,< 10 nM,< 10 nM,–
O=C1CCC(N2Cc3cc(CNC(=O)Nc4ccc(CCOC5CCCNC5)c(Cl)c4)ccc3C2=O)C(=O)N1 (stereo not shown) [Compound B13],< 10 nM,< 10 nM,10 to 50 nM,10 to 50 nM,10 to 50 nM,–
O=C1CCC(N2Cc3cc(CNC(=O)Nc4ccc(CCCOC5CCNC6CC65)c(Cl)c4)ccc3C2=O)C(=O)N1 (stereo not shown) [Compound B71],< 10 nM,< 10 nM,10 to 50 nM,< 10 nM,< 10 nM,–
CNCCOCCC1(c2ccc(NC(=O)NCc3ccc4c(c3)CN(C3CCC(=O)NC3=O)C4=O)cc2Cl)CCCCC1 (stereo not shown) [Compound B51],10 to 50 nM,10 to 50 nM,> 100 nM,50 to 100 nM,50 to 100 nM,–
O=C1CCC(N2Cc3cc(CNC(=O)Nc4ccc(COCCC5CCCNC5)c(Cl)c4)ccc3C2=O)C(=O)N1 (stereo not shown) [Compound B9],< 10 nM,< 10 nM,10 to 50 nM,10 to 50 nM,10 to 50 nM,–
CNC1COCC(OCCc2ccc(NC(=O)NCc3ccc4c(c3)CN(C3CCC(=O)NC3=O)C4=O)cc2Cl)C1 (stereo not shown) [Compound B44],< 10 nM,< 10 nM,10 to 50 nM,< 10 nM,< 10 nM,–
O=C1CCC(N2Cc3cc(CNC(=O)Nc4ccc(CCCOCCC5CCCNC5)c(Cl)c4)ccc3C2=O)C(=O)N1 (stereo not shown) [Compound B21],10 to 50 nM,< 10 nM,> 100 nM,10 to 50 nM,10 to 50 nM,–
O=C1CCC(N2Cc3cc(CNC(=O)Nc4ccc(COCC5CCCNC5)c(Cl)c4)ccc3C2=O)C(=O)N1 (stereo not shown) [Compound B8],10 to 50 nM,10 to 50 nM,10 to 50 nM,10 to 50 nM,10 to 50 nM,–

# Now from value to molecule, other results behind:
IC50 (NCI-H929),IC50 (HL-60),IC50 (NCI-H82),IC50 (SK-BR-3),IC50 (Romas),Compound,further results
< 10 nM,< 10 nM,10 to 50 nM,10 to 50 nM,10 to 50 nM,CNCC1CCCC(OCCc2ccc(NC(=O)NCc3ccc4c(c3)CN(C3CCC(=O)NC3=O)C4=O)cc2Cl)C1 (stereo not shown) [Compound B54],–
< 10 nM,< 10 nM,10 to 50 nM,< 10 nM,< 10 nM,O=C1CCC(N2Cc3cc(CNC(=O)Nc4ccc(CCCCOC5CCCNC5)c(Cl)c4)ccc3C2=O)C(=O)N1 (stereo not shown) [Compound B25],–
< 10 nM,< 10 nM,10 to 50 nM,10 to 50 nM,10 to 50 nM,O=C1CCC(N2Cc3cc(CNC(=O)Nc4ccc(CCCOC5CCNCC56CC6)c(Cl)c4)ccc3C2=O)C(=O)N1 (stereo not shown) [Compound B72],–
< 10 nM,< 10 nM,10 to 50 nM,< 10 nM,< 10 nM,O=C1CCC(N2Cc3cc(CNC(=O)Nc4ccc(CCCOCC5CCCN5)c(Cl)c4)ccc3C2=O)C(=O)N1 (stereo not shown) [Compound B65],–
< 10 nM,< 10 nM,10 to 50 nM,10 to 50 nM,10 to 50 nM,O=C1CCC(N2Cc3cc(CNC(=O)Nc4ccc(CCCOC5CNCC6CCCCC65)c(Cl)c4)ccc3C2=O)C(=O)N1 (stereo not shown) [Compound B70],–
< 10 nM,10 to 50 nM,> 100 nM,10 to 50 nM,10 to 50 nM,O=C1CCC(N2Cc3cc(CNC(=O)Nc4ccc(COCCCC5CCCNC5)c(Cl)c4)ccc3C2=O)C(=O)N1 (stereo not shown) [Compound B10],–
10 to 50 nM,< 10 nM,> 100 nM,50 to 100 nM,50 to 100 nM,O=C1CCC(N2Cc3cc(CNC(=O)Nc4ccc(CCOCCNC5CCCCC5)c(Cl)c4)ccc3C2=O)C(=O)N1 (stereo not shown) [Compound B46],–
< 10 nM,< 10 nM,10 to 50 nM,< 10 nM,< 10 nM,O=C1CCC(N2Cc3cc(CNC(=O)Nc4ccc(CCOCC5CNCCO5)c(Cl)c4)ccc3C2=O)C(=O)N1 (stereo not shown) [Compound B53],–
< 10 nM,< 10 nM,10 to 50 nM,< 10 nM,< 10 nM,O=C1CCC(N2Cc3cc(CNC(=O)Nc4ccc(CCCOC5CCNC5)c(Cl)c4)ccc3C2=O)C(=O)N1 (stereo not shown) [Compound B64],–
< 10 nM,< 10 nM,10 to 50 nM,< 10 nM,< 10 nM,CC1(OCCCc2ccc(NC(=O)NCc3ccc4c(c3)CN(C3CCC(=O)NC3=O)C4=O)cc2Cl)CCCNC1 (stereo not shown) [Compound B67],–
< 10 nM,< 10 nM,10 to 50 nM,< 10 nM,< 10 nM,O=C1CCC(N2Cc3cc(CNC(=O)Nc4ccc(CCCOC5CC6(CNC6)C5)c(Cl)c4)ccc3C2=O)C(=O)N1 (stereo not shown) [Compound B68],–
< 10 nM,< 10 nM,10 to 50 nM,< 10 nM,< 10 nM,CNCC1(COCCc2ccc(NC(=O)NCc3ccc4c(c3)CN(C3CCC(=O)NC3=O)C4=O)cc2Cl)CCCCC1 (stereo not shown) [Compound B45],–
10 to 50 nM,< 10 nM,> 100 nM,10 to 50 nM,10 to 50 nM,O=C1CCC(N2Cc3cc(CNC(=O)Nc4ccc(CCOCCC5CCCNC5)c(Cl)c4)ccc3C2=O)C(=O)N1 (stereo not shown) [Compound B15],–
< 10 nM,< 10 nM,10 to 50 nM,< 10 nM,< 10 nM,CC1(OCCCc2ccc(NC(=O)NCc3ccc4c(c3)CN(C3CCC(=O)NC3=O)C4=O)cc2Cl)CCNCC1 (stereo not shown) [Compound B66],–
10 to 50 nM,10 to 50 nM,> 100 nM,> 100 nM,> 100 nM,O=C1CCC(N2Cc3cc(CNC(=O)Nc4ccc(CCOCCNC5CC5)c(Cl)c4)ccc3C2=O)C(=O)N1 (stereo not shown) [Compound B47],–
